{
  "source": "paper PMC3569039",
  "about": "(Bioorganic & medicinal chemistry letters, 2011)",
  "tested_on": "HeLa cells",
  "data": [
    {"substance": "Fluo-3", "values": [
      {"measurement": "cellular debris in treated cells (apparent cytotoxicity)", "value": "significant amount of cellular debris"}
    ]}
  ]
}
